The target in the first test is T1, Rγc subunit (Homo sapiens, UniProt P31785).
T1 construct: purchased ACRObiosystems, Inc. ILG-H5256
T1 sequence (P31785 23-254): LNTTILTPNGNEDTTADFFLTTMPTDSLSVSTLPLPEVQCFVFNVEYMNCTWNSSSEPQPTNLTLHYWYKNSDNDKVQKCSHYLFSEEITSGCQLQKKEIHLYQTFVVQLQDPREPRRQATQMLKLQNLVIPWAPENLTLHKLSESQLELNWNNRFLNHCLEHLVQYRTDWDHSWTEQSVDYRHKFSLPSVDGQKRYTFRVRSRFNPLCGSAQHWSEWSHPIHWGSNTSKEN
Put plainly: Alanine scan competition binding assay, binding to Rγc subunit. Conditions: alanine scan peptides.
`CC(C)C[C@@H]1NC(=O)[C@H](CCC(=O)O)NC(=O)[C@H](C(C)C)NC(=O)[C@H](C)NC(=O)[C@H](CCC(=O)O)NC(=O)[C@H](Cc2c[nH]c3ccccc23)NC(=O)[C@H](CC(=O)O)NC(=O)[C@H](CCC(N)=O)NC(=O)[C@@H](NC(=O)[C@@H](NC(=O)[C@@H](NC(=O)CNC(=O)CN)C(C)C)C(C)C)CSSC[C@@H](C(=O)N[C@@H](Cc2c[nH]c3ccccc23)C(=O)N[C@@H](CCC(N)=O)C(=O)NCC(=O)NCC(=O)O)NC1=O` [SEQ ID NO: 1036, G G V V C Q D W E A V E L C W Q G G] returned a half-inhibitory concentration (IC50) of under 100 nM. In turn, `CC(C)C[C@@H]1NC(=O)[C@H](CCC(=O)O)NC(=O)[C@H](C(C)C)NC(=O)CNC(=O)[C@H](C)NC(=O)[C@H](Cc2c[nH]c3ccccc23)NC(=O)[C@H](CC(=O)O)NC(=O)[C@H](CCC(N)=O)NC(=O)[C@@H](NC(=O)[C@@H](NC(=O)[C@@H](NC(=O)CNC(=O)CN)C(C)C)C(C)C)CSSC[C@@H](C(=O)N[C@@H](Cc2c[nH]c3ccccc23)C(=O)N[C@@H](CCC(N)=O)C(=O)NCC(=O)NCC(=O)O)NC1=O` [SEQ ID NO: 1035, G G V V C Q D W A G V E L C W Q G G] displayed a half-inhibitory concentration (IC50) of under 50 nM.

Take `CC(C)[C@@H]1NC(=O)CNC(=O)[C@H](CCC(=O)O)NC(=O)[C@H](Cc2c[nH]c3ccccc23)NC(=O)[C@H](CC(=O)O)NC(=O)[C@H](CCC(N)=O)NC(=O)[C@@H](NC(=O)[C@@H](NC(=O)[C@@H](NC(=O)CNC(=O)CN)C(C)C)C(C)C)CSSC[C@@H](C(=O)N[C@@H](Cc2c[nH]c3ccccc23)C(=O)N[C@@H](CCC(N)=O)C(=O)NCC(=O)NCC(=O)O)NC(=O)[C@H](C)NC(=O)[C@H](CCC(=O)O)NC1=O` [SEQ ID NO: 1039, G G V V C Q D W E G V E A C W Q G G]: the concentration for half-maximal inhibition (IC50) was under 5000 nM. In the case of `CC(C)C[C@@H]1NC(=O)[C@H](C)NC(=O)[C@H](C(C)C)NC(=O)CNC(=O)[C@H](CCC(=O)O)NC(=O)[C@H](Cc2c[nH]c3ccccc23)NC(=O)[C@H](CC(=O)O)NC(=O)[C@H](CCC(N)=O)NC(=O)[C@@H](NC(=O)[C@@H](NC(=O)[C@@H](NC(=O)CNC(=O)CN)C(C)C)C(C)C)CSSC[C@@H](C(=O)N[C@@H](Cc2c[nH]c3ccccc23)C(=O)N[C@@H](CCC(N)=O)C(=O)NCC(=O)NCC(=O)O)NC1=O` [SEQ ID NO: 1038, G G V V C Q D W E G V A L C W Q G G], the concentration for half-maximal inhibition (IC50) was under 50 nM. On the same count and under the same terms, next, `CC(C)C[C@@H]1NC(=O)[C@H](CCC(=O)O)NC(=O)[C@H](C)NC(=O)CNC(=O)[C@H](CCC(=O)O)NC(=O)[C@H](Cc2c[nH]c3ccccc23)NC(=O)[C@H](CC(=O)O)NC(=O)[C@H](CCC(N)=O)NC(=O)[C@@H](NC(=O)[C@@H](NC(=O)[C@@H](NC(=O)CNC(=O)CN)C(C)C)C(C)C)CSSC[C@@H](C(=O)N[C@@H](Cc2c[nH]c3ccccc23)C(=O)N[C@@H](CCC(N)=O)C(=O)NCC(=O)NCC(=O)O)NC1=O` [SEQ ID NO: 1037, G G V V C Q D W E G A E L C W Q G G]: under 2000 nM; `CC(C)C[C@@H]1NC(=O)[C@H](CCC(=O)O)NC(=O)[C@H](C(C)C)NC(=O)CNC(=O)[C@H](CCC(=O)O)NC(=O)[C@H](Cc2c[nH]c3ccccc23)NC(=O)[C@H](C)NC(=O)[C@H](CCC(N)=O)NC(=O)[C@@H](NC(=O)[C@@H](NC(=O)[C@@H](NC(=O)CNC(=O)CN)C(C)C)C(C)C)CSSC[C@@H](C(=O)N[C@@H](Cc2c[nH]c3ccccc23)C(=O)N[C@@H](CCC(N)=O)C(=O)NCC(=O)NCC(=O)O)NC1=O` [SEQ ID NO: 1033, G G V V C Q A W E G V E L C W Q G G]: under 50 nM. In the case of `CC(C)C[C@@H]1NC(=O)[C@H](CCC(=O)O)NC(=O)[C@H](C(C)C)NC(=O)CNC(=O)[C@H](CCC(=O)O)NC(=O)[C@H](Cc2c[nH]c3ccccc23)NC(=O)[C@H](CC(=O)O)NC(=O)[C@H](CCC(N)=O)NC(=O)[C@@H](NC(=O)[C@@H](NC(=O)[C@@H](NC(=O)CNC(=O)CN)C(C)C)C(C)C)CSSC[C@@H](C(=O)N[C@@H](Cc2c[nH]c3ccccc23)C(=O)N[C@@H](CCC(N)=O)C(=O)NCC(=O)NCC(=O)O)NC1=O` [SEQ ID NO: 1031, G G V V C Q D W E G V E L C W Q G G], the half-inhibitory concentration (IC50) is under 50 nM.

On to `CC(C)C[C@@H]1NC(=O)[C@H](CCC(=O)O)NC(=O)[C@H](C(C)C)NC(=O)CNC(=O)[C@H](CCC(=O)O)NC(=O)[C@H](C)NC(=O)[C@H](CC(=O)O)NC(=O)[C@H](CCC(N)=O)NC(=O)[C@@H](NC(=O)[C@@H](NC(=O)[C@@H](NC(=O)CNC(=O)CN)C(C)C)C(C)C)CSSC[C@@H](C(=O)N[C@@H](Cc2c[nH]c3ccccc23)C(=O)N[C@@H](CCC(N)=O)C(=O)NCC(=O)NCC(=O)O)NC1=O` [SEQ ID NO: 1034, G G V V C Q D A E G V E L C W Q G G], for which the IC50 is under 2000 nM.

Compound `CC(C)C[C@@H]1NC(=O)[C@H](CCC(=O)O)NC(=O)[C@H](C(C)C)NC(=O)CNC(=O)[C@H](CCC(=O)O)NC(=O)[C@H](Cc2c[nH]c3ccccc23)NC(=O)[C@H](CC(=O)O)NC(=O)[C@H](C)NC(=O)[C@@H](NC(=O)[C@@H](NC(=O)[C@@H](NC(=O)CNC(=O)CN)C(C)C)C(C)C)CSSC[C@@H](C(=O)N[C@@H](Cc2c[nH]c3ccccc23)C(=O)N[C@@H](CCC(N)=O)C(=O)NCC(=O)NCC(=O)O)NC1=O` [SEQ ID NO: 1032, G G V V C A D W E G V E L C W Q G G] showed an IC50 of under 100 nM.

In another test the target is IL-7Rα (Homo sapiens, UniProt P16871). Kind of test: Competition binding ELISA with bn407::NA-HRP precomplex. Conditions: bn407:NA-HRP 10 nM final; read-out: Competitive Binding ELISA bn407:NA-HRP (10 nMf) IC50 M. For orientation: An ELISA detects its analyte on a solid surface through an enzyme-linked reagent.
Sequence of IL-7Rα (P16871 21-236): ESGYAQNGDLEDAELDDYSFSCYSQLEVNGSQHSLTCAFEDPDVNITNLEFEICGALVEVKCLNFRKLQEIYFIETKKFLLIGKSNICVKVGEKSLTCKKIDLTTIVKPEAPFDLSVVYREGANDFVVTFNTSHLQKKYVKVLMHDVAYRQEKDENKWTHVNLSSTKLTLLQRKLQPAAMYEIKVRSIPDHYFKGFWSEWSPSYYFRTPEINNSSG
On to `CC[C@H](C)[C@H](N)C(=O)N1CCC[C@H]1C(=O)N[C@@H](Cc1c[nH]c2ccccc12)C(=O)N[C@H]1CSSC[C@@H](C(=O)N[C@@H](C)C(=O)N[C@@H](Cc2c[nH]c3ccccc23)C(=O)N[C@@H](CC(C)C)C(=O)N[C@@H](CCCNC(=N)N)C(=O)N[C@@H](CCC(N)=O)C(=O)N[C@@H](C)C(=O)NCC(=O)NCC(=O)O)NC(=O)[C@H](CCC(N)=O)NC(=O)[C@H](CC(C)C)NC(=O)CNC(=O)CNC(=O)[C@@H]2CCCN2C(=O)[C@H](CC(=O)O)NC(=O)[C@H](CC(C)C)NC(=O)[C@H]([C@@H](C)O)NC1=O` [SEQ ID NO: 432, I P W C T L D P G G L Q C A W L R Q A], for which the IC50 was determined as 942 nM.

Turning to `CC[C@H](C)[C@H](N)C(=O)N1CCC[C@H]1C(=O)N[C@@H](Cc1c[nH]c2ccccc12)C(=O)N[C@H]1CSSC[C@@H](C(=O)N[C@@H](C)C(=O)N[C@@H](Cc2c[nH]c3ccccc23)C(=O)N[C@@H](C)C(=O)N[C@@H](CCCNC(=N)N)C(=O)N[C@@H](CCC(N)=O)C(=O)N[C@@H](CCSC)C(=O)NCC(=O)NCC(=O)O)NC(=O)[C@H](CCC(N)=O)NC(=O)[C@H](CC(C)C)NC(=O)CNC(=O)CNC(=O)[C@@H]2CCCN2C(=O)[C@H](CC(=O)O)NC(=O)[C@H](CC(C)C)NC(=O)[C@H]([C@@H](C)O)NC1=O` [SEQ ID NO: 425, I P W C T L D P G G L Q C A W A R Q M], the half-inhibitory concentration (IC50) came out at 1850 nM. Still for that read-out and setting: then `CC[C@H](C)[C@H](N)C(=O)N1CCC[C@H]1C(=O)N[C@@H](Cc1c[nH]c2ccccc12)C(=O)N[C@H]1CSSC[C@@H](C(=O)N[C@@H](C)C(=O)N[C@@H](Cc2c[nH]c3ccccc23)C(=O)N[C@@H](CC(C)C)C(=O)N[C@@H](CCCNC(=N)N)C(=O)N[C@@H](CCC(N)=O)C(=O)N[C@@H](CCSC)C(=O)NCC(=O)NCC(=O)O)NC(=O)[C@H](CCC(N)=O)NC(=O)[C@H](CC(C)C)NC(=O)CNC(=O)CNC(=O)[C@@H]2CCCN2C(=O)[C@H](CC(=O)O)NC(=O)[C@H](CC(C)C)NC(=O)[C@H]([C@@H](C)O)NC1=O` [SEQ ID NO: 420, I P W C T L D P G G L Q C A W L R Q M], with 705 nM; and `CC[C@H](C)[C@H](N)C(=O)N1CCC[C@H]1C(=O)N[C@@H](Cc1c[nH]c2ccccc12)C(=O)N[C@H]1CSSC[C@@H](C(=O)N[C@@H](C)C(=O)N[C@@H](Cc2c[nH]c3ccccc23)C(=O)N[C@@H](CC(C)C)C(=O)N[C@@H](Cc2c[nH]cn2)C(=O)N[C@@H](CCC(N)=O)C(=O)N[C@@H](CCSC)C(=O)NCC(=O)NCC(=O)O)NC(=O)[C@H](CCC(N)=O)NC(=O)[C@H](CC(C)C)NC(=O)CNC(=O)CNC(=O)[C@@H]2CCCN2C(=O)[C@H](CC(=O)O)NC(=O)[C@H](CC(C)C)NC(=O)[C@H]([C@@H](C)O)NC1=O` [SEQ ID NO: 430, I P W C T L D P G G L Q C A W H K Q M], with 682 nM; and `CC[C@H](C)[C@H](N)C(=O)N1CCC[C@H]1C(=O)N[C@@H](Cc1c[nH]c2ccccc12)C(=O)N[C@H]1CSSC[C@@H](C(=O)N[C@@H](C)C(=O)N[C@@H](Cc2c[nH]c3ccccc23)C(=O)N[C@@H](CC(C)C)C(=O)N[C@@H](C)C(=O)N[C@@H](C)C(=O)N[C@@H](C)C(=O)NCC(=O)NCC(=O)O)NC(=O)[C@H](CCC(N)=O)NC(=O)[C@H](CC(C)C)NC(=O)CNC(=O)CNC(=O)[C@@H]2CCCN2C(=O)[C@H](CC(=O)O)NC(=O)[C@H](CC(C)C)NC(=O)[C@H]([C@@H](C)O)NC1=O` [SEQ ID NO: 434, I P W C T L D P G G L Q C A W L A A A], with 602 nM. Turning to `CC[C@H](C)[C@H](N)C(=O)N1CCC[C@H]1C(=O)N[C@@H](Cc1c[nH]c2ccccc12)C(=O)N[C@H]1CSSC[C@@H](C(=O)N[C@@H](C)C(=O)N[C@@H](Cc2ccccc2)C(=O)N[C@@H](CC(C)C)C(=O)N[C@@H](CCCNC(=N)N)C(=O)N[C@@H](CCC(N)=O)C(=O)N[C@@H](CCSC)C(=O)NCC(=O)NCC(=O)O)NC(=O)[C@H](CCC(N)=O)NC(=O)[C@H](CC(C)C)NC(=O)CNC(=O)CNC(=O)[C@@H]2CCCN2C(=O)[C@H](CC(=O)O)NC(=O)[C@H](CC(C)C)NC(=O)[C@H]([C@@H](C)O)NC1=O` [SEQ ID NO: 422, I P W C T L D P G G L Q C A F L R Q M], the half-maximal inhibitory concentration (IC50) amounted to 903 nM. For `CC[C@H](C)[C@H](N)C(=O)N1CCC[C@H]1C(=O)N[C@@H](Cc1c[nH]c2ccccc12)C(=O)N[C@H]1CSSC[C@@H](C(=O)N[C@@H](C)C(=O)N[C@@H](Cc2ccc(O)cc2)C(=O)N[C@@H](CC(C)C)C(=O)N[C@@H](CCCNC(=N)N)C(=O)N[C@@H](CCC(N)=O)C(=O)N[C@@H](CCSC)C(=O)NCC(=O)NCC(=O)O)NC(=O)[C@H](CCC(N)=O)NC(=O)[C@H](CC(C)C)NC(=O)CNC(=O)CNC(=O)[C@@H]2CCCN2C(=O)[C@H](CC(=O)O)NC(=O)[C@H](CC(C)C)NC(=O)[C@H]([C@@H](C)O)NC1=O` [SEQ ID NO: 423, I P W C T L D P G G L Q C A Y L R Q M], the half-inhibitory concentration (IC50) was 664 nM.

In general, IC50 refers to the concentration at which inhibition is half-maximal.
